From patent US7829589B2, “Sulfonamide compounds and uses thereof” (Elixir Pharmaceuticals, Inc., priority 2005, dated 2010) come the findings set out here.

The experiment deals with GHS-R (Homo sapiens, UniProt Q92847). Put plainly: GHS-R antagonist activity (Ki) in a cell based assay. Here is the method: Cell-Based Activity Assays. For example, the ability of the compound to modulate accumulation of a second messenger signaling component downstream of GHS-R can be evaluated. For example, inositol phosphates (IP), as a result of Gq signaling in a mammalian cell, e.g., a Cos-7 cells. Other tissue culture cells, Xenopus oocytes, and primary cells can also be used.
Chain of GHS-R (Q92847 whole entry, species assumed): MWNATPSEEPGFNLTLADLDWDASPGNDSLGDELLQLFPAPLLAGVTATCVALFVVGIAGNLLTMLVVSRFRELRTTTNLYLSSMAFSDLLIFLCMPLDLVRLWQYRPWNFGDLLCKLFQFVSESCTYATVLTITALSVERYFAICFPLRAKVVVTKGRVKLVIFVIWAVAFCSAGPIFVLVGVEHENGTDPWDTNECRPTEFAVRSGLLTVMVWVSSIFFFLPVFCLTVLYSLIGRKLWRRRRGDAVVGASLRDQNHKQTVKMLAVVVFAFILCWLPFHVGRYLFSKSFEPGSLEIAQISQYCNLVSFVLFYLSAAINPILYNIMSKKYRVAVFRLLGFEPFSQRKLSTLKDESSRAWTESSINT
Phosphatidylinositol turnover assay. One day after transfection COS-7 cells are incubated for 24 hours with 5 μCi of [^3H]-myo-inositol in 1 ml medium supplemented with 10% fetal calf serum, 2 mM glutamine and 0.01 mg/ml gentamicin per well. Cells are then washed twice in buffer, 20 mM HEPES, pH 7.4, supplemented with 140 mM NaCl, 5 mM KCl, 1 mM MgSO4, 1 mM CaCl2, 10 mM glucose, 0.05% (w/v) bovine serum; and incubated in 0.5 ml buffer supplemented with 10 mM LiCl at 37° C. for 30 min. For some assays, it is also useful to incubate the cells with adenosine deaminase ADA (200 U/mg, Boehringer Mannheim, Germany) for 30 min in a concentration of 1 U/ml.
After incubation with the compound of interest for 45 min at 37° C., cells are extracted with 10% ice-cold perchloric acid and placed on ice for 30 min. The resulting supernatants are neutralized with KOH in HEPES buffer, and [^3H]-inositol phosphate is purified on Bio-Rad AG 1-X8 anion exchange resin as described. Assays can be run in duplicate, triplicate, etc. […]
As to `CCN(CC)CCCS(=O)(=O)N[C@H](CCc1ccccc1)c1nc(COc2ccccc2)no1` [Compound 99, 3-Diethylamino-propane-1-sulfonic acid [(R)-1-(3-phenoxymethyl-[1,2,4]oxadiazol-5-yl)-3-phenyl-propyl]-amide], the Ki (commonly the equilibrium dissociation constant of an inhibitor or competing ligand from its target) was under 100 nM.
`CCN(CC)CCCS(=O)(=O)N[C@H](Cc1ccccc1)c1nc(-c2ccc(OC)cc2)n[nH]1` [Compound 119, 3-Diethylamino-propane-1-sulfonic acid {(R)-1-[5-(4-methoxy-phenyl)-2H-[1,2,4]triazol-3-yl]-2-phenyl-ethyl}-amide] came in with a Ki of 100 to 500 nM.
As to `CCN(CC)CCCS(=O)(=O)N[C@H](CCc1ccccc1)c1nc(-c2ccc(F)c(C#N)c2)n[nH]1` [Compound 128, 3-Diethylamino-propane-1-sulfonic acid {(R)-1-[5-(3-cyano-4-fluoro-phenyl)-2H-[1,2,4]triazol-3-yl]-3-phenyl-propyl}-amide], the inhibition constant (Ki) was under 100 nM.
Compound `CCN(CC)CCCS(=O)(=O)N1CC[C@H]1c1nc(-c2ccc(OC)cc2)no1` [Compound 153, (S)-Diethyl-(3-{2-[3-(4-methoxy-phenyl)-[1,2,4]oxadiazol-5-yl]-azetidine-1-sulfonyl}-propyl)-amine] returned a Ki of under 100 nM.
Take `CCN(CC)CCCS(=O)(=O)N[C@H](CCc1ccccc1)c1nc(-c2ccc(OC(F)(F)F)cc2)n[nH]1` [Compound 106, 3-Diethylamino-propane-1-sulfonic acid {(R)-3-phenyl-1-[5-(4-trifluoromethoxy-phenyl)-2H-[1,2,4]triazol-3-yl]-propyl}-amide]: the Ki was under 100 nM.
For `CCN(CC)CCS(=O)(=O)N[C@H](CCc1ccccc1)c1nc(-c2ccc(F)cc2)no1` [Compound 89, 2-Diethylamino-ethanesulfonic acid {(R)-1-[3-(4-fluoro-phenyl)-[1,2,4]oxadiazol-5-yl]-3-phenyl-propyl}-amide], the Ki is under 100 nM.
For `CCN(CC)CCCS(=O)(=O)N[C@H](CCc1ccccc1)c1nc(-c2ncccc2C)no1` [Compound 9, 3-Diethylamino-propane-1-sulfonic acid {(R)-1-[3-(3-methyl-pyridin-2-yl)-[1,2,4]oxadiazol-5-yl]-3-phenyl-propyl}-amide] the value was 100 to 500 nM.
Take `CCN(CC)CCCS(=O)(=O)N[C@H](CCc1ccccc1)c1nc(-c2cccc(F)c2)n[nH]1` [Compound 15, 3-Diethylamino-propane-1-sulfonic acid {(R)-1-[5-(3-fluoro-phenyl)-2H-[1,2,4]triazol-3-yl]-3-phenyl-propyl}-amide]: the Ki is under 100 nM.
In turn, “3-Diethylamino-propane-1-sulfonic acid {(R)-1-[3-(5-bromo-pyridin-3-yl)-[1,2,4]oxadiazol-5-yl]-phenyl-propyl}-amide [Compound 103]” gave an inhibition constant Ki of 100 to 500 nM.
`CCN(CC)CCCS(=O)(=O)N[C@H](CCc1ccccc1)c1nc(Cc2ccc(F)c(F)c2)n[nH]1` [Compound 56, 3-Diethylamino-propane-1-sulfonic acid {(R)-1-[5-(3,4-difluoro-benzyl)-2H-[1,2,4]triazol-3-yl]-3-phenyl-propyl}-amide] registered an inhibition constant (Ki) of 100 to 500 nM.
`CCN(CC)CCCS(=O)(=O)N1CC[C@H]1c1nc(Cc2ccc(Br)cc2)no1` [Compound 149, (S)-(3-{2-[3-(4-Bromo-benzyl)-[1,2,4]oxadiazol-5-yl]-azetidine-1-sulfonyl}-propyl)-diethyl-amine] showed an inhibition constant (Ki) of under 100 nM.
In turn, `CCN(CC)CCS(=O)(=O)N[C@H](CCc1ccccc1)c1nc(Cc2cccc(Br)c2)no1` [Compound 92, 2-Diethylamino-ethanesulfonic acid {(R)-1-[3-(3-bromo-benzyl)-[1,2,4]oxadiazol-5-yl]-3-phenyl-propyl}-amide] registered an inhibitory constant (Ki) of under 100 nM.
As to `CCN(CC)CCCS(=O)(=O)N[C@@H](C)c1nc(Cc2ccc(Br)cc2)no1` [Compound 146, (S)-3-Diethylamino-propane-1-sulfonic acid {1-[3-(4-bromo-benzyl)-[1,2,4]oxadiazol-5-yl]-ethyl}-amide], the Ki was 100 to 500 nM.
The result for `CCN(CC)CCS(=O)(=O)N[C@H](CCc1ccccc1)c1nc(Cc2ccc(Br)cc2)no1` [Compound 84, 2-Diethylamino-ethanesulfonic acid {(R)-1-[3-(4-bromo-benzyl)-[1,2,4]oxadiazol-5-yl]-3-phenyl-propyl}-amide] reads 100 to 500 nM; that for `CCN(CC)CCCS(=O)(=O)N[C@H](CCc1ccccc1)c1nc(CCc2ccccc2)no1` [Compound 97, 3-Diethylamino-propane-1-sulfonic acid [(R)-1-(3-phenethyl-[1,2,4]oxadiazol-5-yl)-3-phenyl-propyl]-amide], under 100 nM; that for `CCN(CC)CCCS(=O)(=O)N1CCC[C@H]1c1nc(Cc2ccc(Br)cc2)no1` [Compound 142, (S)-(3-{2-[3-(4-Bromo-benzyl)-[1,2,4]oxadiazol-5-yl]-pyrrolidine-1-sulfonyl}-propyl)-diethyl-amine], 100 to 500 nM.
For `CCN(CC)CCCS(=O)(=O)N[C@H](CCc1ccccc1)c1nc(-c2cncn2C)n[nH]1` [Compound 135] the value was under 100 nM.
The result for `CCN(CC)CCS(=O)(=O)N[C@H](CCc1ccccc1)c1nc(-c2cnccc2C)no1` [Compound 77, 2-Diethylamino-ethanesulfonic acid {(R)-1-[3-(4-methyl-pyridin-3-yl)-[1,2,4]oxadiazol-5-yl]-3-phenyl-propyl}-amide] reads at least 1000 nM.
`CCN(CC)CCCS(=O)(=O)N[C@H](CCc1ccccc1)c1nc(-c2cnccc2C)no1` [Compound 83, 3-Diethylamino-propane-1-sulfonic acid {(R)-1-[3-(4-methyl-pyridin-3-yl)-[1,2,4]oxadiazol-5-yl]-3-phenyl-propyl}-amide] showed an inhibition constant (Ki) of 100 to 500 nM.
`CCN(CC)CCCS(=O)(=O)N[C@H](CCc1ccccc1)c1nc(Cc2cccc(F)c2)no1` [Compound 62, 3-Diethylamino-propane-1-sulfonic acid {(R)-1-[3-(3-fluoro-benzyl)-[1,2,4]oxadiazol-5-yl]-3-phenyl-propyl}-amide] registered a Ki of under 100 nM.
The result for `CCN(CC)CCCS(=O)(=O)N[C@H](CCc1ccccc1)c1nc(-c2ccccc2)no1` [Compound 6, 3-Diethylamino-propane-1-sulfonic acid [(R)-3-phenyl-1-(3-phenyl-[1,2,4]oxadiazol-5-yl)-propyl]-amide] reads under 100 nM; that for `CCN(CC)CCCS(=O)(=O)N[C@H](CCc1ccccc1)c1nc(-c2ccc3c(c2)OCO3)n[nH]1` [Compound 11, 3-Diethylamino-propane-1-sulfonic acid [(R)-1-(5-benzo[1,3]dioxol-5-yl-2H-[1,2,4]triazol-3-yl)-3-phenyl-propyl]-amide], under 100 nM.
For `CCN(CC)CCCS(=O)(=O)N[C@H](CCc1ccccc1)c1nc(-c2ccc(N(C)C)cc2)n[nH]1` [Compound 110, 3-Diethylamino-propane-1-sulfonic acid {(R)-1-[5-(4-dimethylamino-phenyl)-2H-[1,2,4]triazol-3-yl]-3-phenyl-propyl}-amide] the value was at least 1000 nM.
The compound `CCN(CC)CCCS(=O)(=O)N[C@H](CCc1ccccc1)c1nc(CCOC)no1` [Compound 60, 3-Diethylamino-propane-1-sulfonic acid {(R)-1-[3-(2-methoxy-ethyl)-[1,2,4]oxadiazol-5-yl]-3-phenyl-propyl}-amide] gave a Ki of 500 to 1000 nM.
The compound `CCN(CC)CCCS(=O)(=O)N[C@H](CCc1ccccc1)c1nc(Cc2ccc3c(c2)OCO3)n[nH]1` [Compound 30, 3-Diethylamino-propane-1-sulfonic acid [(R)-1-(5-benzo[1,3]dioxol-5-ylmethyl-2H-[1,2,4]triazol-3-yl)-3-phenyl-propyl]-amide] registered a Ki of under 100 nM.
The result for `CCN(CC)CCCS(=O)(=O)N1CCC[C@@H]1c1nc(Cc2ccc(Br)cc2)no1` [Compound 145, (R)-(3-{2-[3-(4-Bromo-benzyl)-[1,2,4]oxadiazol-5-yl]-pyrrolidine-1-sulfonyl}-propyl)-diethyl-amine] reads 100 to 500 nM; that for `CCN(CC)CCCS(=O)(=O)N[C@H](CCc1ccccc1)c1nc(-c2cccc(SC)c2)n[nH]1` [Compound 123, 3-Diethylamino-propane-1-sulfonic acid {(R)-1-[5-(3-methylsulfanyl-phenyl)-2H-[1,2,4]triazol-3-yl]-3-phenyl-propyl}-amide], under 100 nM.
In turn, `CCN(CC)CCCS(=O)(=O)N[C@H](CCc1ccccc1)c1nc(-c2ccc3c(c2)OCCO3)n[nH]1` [Compound 47, 3-Diethylamino-propane-1-sulfonic acid {(R)-1-[5-(2,3-dihydro-benzo[1,4]dioxin-6-yl)-2H-[1,2,4]triazol-3-yl]-3-phenyl-propyl}-amide] returned a Ki of under 100 nM.
Take `CCN(CC)CCCS(=O)(=O)N[C@H](CCc1ccccc1)c1nc(Cc2cccc(Br)c2)no1` [Compound 74, 3-Diethylamino-propane-1-sulfonic acid {(R)-1-[3-(3-bromo-benzyl)-[1,2,4]oxadiazol-5-yl]-3-phenyl-propyl}-amide]: the inhibition constant (Ki) is under 100 nM.
In turn, `CCN(CC)CCCS(=O)(=O)N[C@H](COCc1ccccc1)c1nc(-c2cccnc2)no1` [Compound 45, 3-Diethylamino-propane-1-sulfonic acid [(R)-2-benzyloxy-1-(3-pyridin-3-yl-[1,2,4]oxadiazol-5-yl)-ethyl]-amide] gave an inhibition constant Ki of at least 1000 nM.
